Source: ChEMBL document CHEMBL4422669, “Bisorbicillinol inhibits Lyn tyrosine kinase for allergic response on RBL-2H3 cells” (Bioorg Med Chem Lett, 2019)
The source made the active and inactive calls. The rule behind the calls is not given here.

Key:
[1] = target: Tyrosine-protein kinase Lyn (Homo sapiens) (UniProt P07948); experiment: Competitive inhibition of human LYN expressed in baculovirus infected Sf9 insect cells using […] at 10 uM after 10 mins by Lineweaver-Burk plot analysis
[2] = target: Tyrosine-protein kinase Lyn (Homo sapiens) (UniProt P07948); conditions: Sf9, 10 uM
Description: Inhibition of human LYN expressed in baculovirus infected Sf9 insect cells using p-nitrophenol at 10 uM after 10 mins by Lineweaver-Burk plot analysis

[3] = system: RBL-2H3; experiment: Anti-allergic activity in rat RBL2H3 cells assessed as reduction in mouse anti-DNP IgE-induced TNF-alpha level preincubated for 15 mins followed by mouse anti-DNP IgE-stimulation and measured after 3 hrs by ELISA; format: functional, cell-based
[4] = system: RBL-2H3; experiment: Anti-allergic activity in rat RBL2H3 cells assessed as reduction in mouse anti-DNP IgE-induced IL-4 level preincubated for 15 mins followed by mouse anti-DNP IgE-stimulation and measured after 3 hrs by ELISA; format: functional, cell-based
[5] = system: RBL-2H3; experiment: (§1) Anti-allergic activity in rat RBL2H3 cells assessed as reduction in calcium ionophore-induced beta-hexosaminidase release preincubated for 15 mins followed by calcium ionophore-stimulation and measured after 3 hrs by p-nitrophenyl-2-acetamide-2-deoxy-beta-glucopyranoside dye-based colorimetric analysis; format: functional, cell-based
[6] = system: RBL-2H3; experiment: as §1, with “mouse anti-DNP IgE-induced” for “calcium ionophore-induced”, “mouse anti-DNP IgE-stimulation” for “calcium ionophore-stimulation”; format: functional, cell-based
[7] = system: RBL-2H3; experiment: Anti-allergic activity in rat RBL2H3 cells assessed as reduction in calcium ionophore-induced TNF-alpha level preincubated for 15 mins followed by calcium ionophore stimulation and measured after 3 hrs by ELISA; format: functional, cell-based
[8] = system: RBL-2H3; experiment: Anti-allergic activity in rat RBL2H3 cells assessed as reduction in calcium ionophore-induced IL-4 level preincubated for 15 mins followed by calcium ionophore stimulation and measured after 3 hrs by ELISA; format: functional, cell-based
[9] = system: RBL-2H3; experiment: Cytotoxicity in rat RBL2H3 cells assessed as LDH release; format: cell-based; set-up: concentration or dose not given beside the values
[10] = system: RBL-2H3; experiment: Effect on mouse anti-DNP IgE-induced Lyn protein expression in rat RBL2H3 cells at 10 uM preincubated for 15 mins followed by mouse anti-DNP IgE stimulation and measured after 3 hrs by Western blot analysis; format: functional, cell-based
[11] = system: RBL-2H3; experiment: Effect on mouse anti-DNP IgE-induced Syk protein expression in rat RBL2H3 cells at 10 uM preincubated for 15 mins followed by mouse anti-DNP IgE stimulation and measured after 3 hrs by Western blot analysis; format: functional, cell-based
[12] = target: Tyrosine-protein kinase Lyn (Rattus norvegicus) (UniProt Q07014); experiment: Inhibition of Lyn in rat RBL2H3 cells assessed as reduction in mouse anti-DNP IgE-induced PLCgamma1-phosphorylation level at 10 uM preincubated for 15 mins followed by mouse anti-DNP IgE stimulation and measured after 3 hrs by Western blot analysis; format: cell-based
[13] = target: Tyrosine-protein kinase Lyn (Rattus norvegicus) (UniProt Q07014); experiment: Inhibition of mouse anti-DNP IgE-induced Lyn phosphorylation in rat RBL2H3 cells at 10 uM preincubated for 15 mins followed by mouse anti-DNP IgE stimulation and measured after 3 hrs by Western blot analysis; format: cell-based
[14] = target: Tyrosine-protein kinase Lyn (Rattus norvegicus) (UniProt Q07014); experiment: Inhibition of Lyn in rat RBL2H3 cells assessed as reduction in mouse anti-DNP IgE-induced Syk phosphorylation level at 10 uM preincubated for 15 mins followed by mouse anti-DNP IgE stimulation and measured after 3 hrs by Western blot analysis; format: cell-based

Chain of Tyrosine-protein kinase Lyn (Rattus norvegicus) (Q07014 whole entry): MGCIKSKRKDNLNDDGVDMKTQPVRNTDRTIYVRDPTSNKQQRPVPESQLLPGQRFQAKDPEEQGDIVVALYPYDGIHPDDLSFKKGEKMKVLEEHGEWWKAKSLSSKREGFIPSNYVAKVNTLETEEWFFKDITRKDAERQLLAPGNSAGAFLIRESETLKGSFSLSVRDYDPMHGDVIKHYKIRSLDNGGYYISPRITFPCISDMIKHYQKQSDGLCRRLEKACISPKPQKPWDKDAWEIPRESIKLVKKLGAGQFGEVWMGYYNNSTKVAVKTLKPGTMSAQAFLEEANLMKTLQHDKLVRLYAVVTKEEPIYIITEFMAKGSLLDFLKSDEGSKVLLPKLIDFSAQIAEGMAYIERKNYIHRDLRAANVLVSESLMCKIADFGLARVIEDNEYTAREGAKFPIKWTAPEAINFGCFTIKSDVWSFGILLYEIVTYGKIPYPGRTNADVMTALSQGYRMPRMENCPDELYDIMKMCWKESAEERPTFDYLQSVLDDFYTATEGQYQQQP
Chain of Tyrosine-protein kinase Lyn (Homo sapiens) (P07948 2-512 limits assumed): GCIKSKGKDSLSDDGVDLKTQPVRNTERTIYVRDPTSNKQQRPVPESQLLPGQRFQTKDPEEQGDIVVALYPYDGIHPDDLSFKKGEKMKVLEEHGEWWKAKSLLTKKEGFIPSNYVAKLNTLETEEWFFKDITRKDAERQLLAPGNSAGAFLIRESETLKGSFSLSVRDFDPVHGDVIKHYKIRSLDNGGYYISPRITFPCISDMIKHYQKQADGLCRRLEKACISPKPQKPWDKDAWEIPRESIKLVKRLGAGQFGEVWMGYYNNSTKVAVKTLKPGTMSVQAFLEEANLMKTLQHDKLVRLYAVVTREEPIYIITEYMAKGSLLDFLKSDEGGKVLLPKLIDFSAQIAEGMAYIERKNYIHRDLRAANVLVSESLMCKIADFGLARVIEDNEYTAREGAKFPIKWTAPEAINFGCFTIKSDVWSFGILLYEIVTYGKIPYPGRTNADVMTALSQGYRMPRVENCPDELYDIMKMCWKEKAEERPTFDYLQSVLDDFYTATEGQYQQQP

SMILES | IC50 [3] [µM] | IC50 [4] [µM] | IC50 [5] [µM] | IC50 [6] [µM] | IC50 [7] [µM] | IC50 [8] [µM] | inhibition [12] | inhibition [13] | inhibition [14] | inhibition [1] | inhibition [2] | Activity [9] [%] | Activity [10] | Activity [11]
CN[C@@H]1C[C@H]2O[C@@](C)([C@@H]1OC)n1c3ccccc3c3c4c(c5c6ccccc6n2c5c31)C(=O)NC4 |  |  |  |  |  |  |  |  |  | inactive | Active |  |  | 
C/C=C/C=C/C(=O)[C@]12C(=O)C(C)=C(O)[C@@](C)(O)[C@H]1[C@H]1\C(=C(O)/C=C/C=C/C)C(=O)[C@]2(C)C(=O)[C@@]1(C)O [BISORBICILLINOL] | 2.9 | 2.8 | 53.6 | 2.8 | 63.8 | 4.9 | Active | inactive | Active | Active |  | < 5 | inactive | inactive
C/C=C/C=C/C(=O)c1cc(C)c(O)c(C)c1O |  |  | < 100 | 26.5 | < 100 |  |  |  |  |  |  | < 5 |  | 
C/C=C/C=C/C(O)=C1/C(=O)[C@@]2(C)[C@H]3\C(=C(O)/C=C/C=C/C)C(=O)[C@H]4[C@@H]1[C@]1(C)O[C@@]4(O)[C@@]3(C)O[C@@]12O | 17.3 | 59.4 | < 100 | 4.5 | < 100 | 17.9 |  |  |  |  |  | < 5 |  | 

Continued, in another order:

IC50 [3] [µM] | IC50 [4] [µM] | IC50 [5] [µM] | IC50 [6] [µM] | IC50 [7] [µM] | IC50 [8] [µM] | inhibition [12] | inhibition [13] | inhibition [14] | SMILES | inhibition [1] | inhibition [2] | Activity [9] [%] | Activity [10] | Activity [11]
40.8 | 7.7 | < 100 | 9.1 | < 100 | 7.3 |  |  |  | C/C=C/C=C/C(=O)C1=C[C@@]2(C)[C@H]3C(C(=O)/C=C/C=C/C)=C(O)C(C)=C(O)[C@@]3(C)O[C@@]2(O)[C@@](C)(O)C1=O [BISVERTINOLONE] |  |  | < 5 |  | 
35.6 | 8.5 | < 100 | 4.8 | < 100 | 27.1 |  |  |  | C/C=C/C=C/C(=O)C1=C[C@](C)(OC(C)=O)C(=O)C(C)=C1O |  |  | < 5 |  | 
29.6 | 6.9 | < 100 | 18.3 | 23.2 | 9.1 |  |  |  | C/C=C/C=C/C(O)=C1/C(=O)[C@@]2(C)[C@H]3\C(=C(O)/C=C/C=C/C)C(=O)[C@@]4(C)[C@@H]1[C@]1(C)O[C@@]4(O)[C@@]3(C)O[C@@]12O |  |  | < 5 |  | 
